Data reported in patent publication US11919904B2, “Sulfonylamide compounds as CDK2 inhibitors” (Incyte Corporation, priority 2019, dated 2024).

Legend:
CDK2/Cyclin E1 = CDK2/Cyclin E1 (Homo sapiens (Human), UniProt P24941); experiment: CDK2/Cyclin E1 HTRF enzyme activity assay; format: biochemical; details: 1 mM ATP
Procedure: CDK2/Cyclin E1 enzyme activity assays utilize full-length human CDK2 co-expressed as N-terminal GST-tagged protein with FLAG-Cyclin E1 in a baculovirus expression system (Carna Product Number 04-165). Assays are conducted in white 384-well polystyrene plates in a final reaction volume of 8 μL. CDK2/Cyclin E1 (0.25 nM) is incubated with compounds (40 nL serially diluted in DMSO) in the presence of ATP (50 μM or 1 mM) and 50 nM ULight™-labeled eIF4E-binding protein 1 (THR37/46) peptide (PerkinElmer) in assay buffer (containing 50 mM HEPES pH 7.5, 1 mM EGTA, 10 mM MgCl2, 2 mM DTT, 0.05 mg/mL BSA, and 0.01% Tween 20) for 60 minutes at room temperature. The reactions are stopped by the addition of EDTA and Europium-labeled anti-phospho-4E-BP1 antibody (PerkinElmer), for a final concentration of 15 mM and 1.5 nM, respectively. HTRF signals are read after 1 hour at room temperature on a PHERAstar FS plate reader (BMG Labtech). Data is analyzed with IDBS XLFit and GraphPad Prism 5.0 software using a three or four parameter dose response curve to determine IC50 for each compound.

[1] = system: Rb phosphorylated on serine 780 in CCNE1 amplified COV318 cells; experiment: CDK2 pRb (S780) HTRF cellular assay; format: cell-based; details: Homo sapiens, FIG. 10B
Procedure: CDK2 pRb ([…]) HTRF cellular assay enables the quantitative detection of Rb phosphorylated on […] in CCNE1 amplified COV318 cells. The assay comprised two antibodies: Europium cryptate labeled anti-Phospho-Rb […] antibody (donor) and d2 labeled anti-Rb antibody (acceptor). […] The final concentrations of compounds start from 3 μM. […] After 2 h of incubation at room temperature, HTRF signals were measured on the PHERAstar microplate reader (BMG Labtech), using 340 nm as excitation wavelength, a 620 nm filter for the Europium donor fluorescence, and a 665-nm filter for the acceptor fluorescence detection. HTRF signals were calculated as the HTRF ratio (ratio of fluorescence measured at 665 nm and 620 nm)×10000.

[2] = system: CCNE1 amplified COV318 cells; experiment: Cell cycle analysis by FACS in COV318 cells with control or p16 siRNA; format: cell-based, human; details: 100 nM, sixteen hours
Procedure: To confirm the role of p16 in CDK2-sensitivity of CCNE-amplified cells, COV318 cells were treated with control or p16-specifict siRNA.
Bulk DNA was stained with DAPI. Compound-treated and DMSO treated control cells were acquired with CytoFlex (Beckman Coulter) and were analyzed using the FlowJo software. For cell cycle analysis of cells with siRNA knockdown, 72 hours after siRNA transfection, cells exposed to 10 μM EdU for 3 hours before detection of Click-iT Alexa Fluor® 647 azide kit.

IC50 (CDK2/Cyclin E1)	SMILES	also measured
≤ 50 nM	CNS(=O)(=O)c1ccc(Nc2ncc3c(n2)N([C@@H]2CCC[C@]2(C)O)C(=O)C32CC2)cc1 (relative stereo) [Example 1, 4-((7′-((cis)-2-hydroxy-2-methylcyclopentyl)-6′-oxo-6′,7′-dihydrospiro[cyclopropane-1,5′-pyrrolo[2,3-d]pyrimidin]-2′-yl)amino)-N-methylbenzenesulfonamide]	
≤ 50 nM	CNS(=O)(=O)c1ccc(Nc2ncc3c(n2)N([C@@H]2CCC[C@H]2C)C(=O)C32CC2)cc1 (relative stereo) [Example 2, N-methyl-4-((7′-((trans)-2-methylcyclopentyl)-6′-oxo-6′,7′-dihydrospiro[cyclopropane-1,5′-pyrrolo[2,3-d]pyrimidin]-2′-yl)amino)benzenesulfonamide]	
≤ 50 nM	CC1(NS(=O)(=O)c2ccc(Nc3ncc4c(n3)N([C@@H]3CCC[C@]3(C)O)C(=O)C43CC3)cc2)CNC1 (relative stereo) [Example 3, 4-((7′-((cis)-2-hydroxy-2-methylcyclopentyl)-6′-oxo-6′,7′-dihydrospiro[cyclopropane-1,5′-pyrrolo[2,3-d]pyrimidin]-2′-yl)amino)-N-(3-methylazetidin-3-yl)benzenesulfonamide]	
≤ 50 nM	CNS(=O)(=O)c1ccc(Nc2ncc3c(n2)N([C@@H]2CCC[C@@]2(C)O)C(=O)C32CC2)c(F)c1 (relative stereo) [Example 11, 3-fluoro-4-((7′-((trans)-2-hydroxy-2-methylcyclopentyl)-6′-oxo-6′,7′-dihydrospiro[cyclopropane-1,5′-pyrrolo[2,3-d]pyrimidin]-2′-yl)amino)-N-methylbenzenesulfonamide]	
≤ 50 nM	[2H]C([2H])([2H])NS(=O)(=O)c1ccc(Nc2ncc3c(n2)N([C@@H]2CCC[C@@]2(C)O)C(=O)C32CC2)cc1 (single isomer, unassigned) [Example 9, 4-((7′-((trans)-2-hydroxy-2-methylcyclopentyl)-6′-oxo-6′,7′-dihydrospiro [cyclopropane-1,5′-pyrrolo[2,3-d]pyrimidin]-2′-yl)amino)-N-(methyl-d)benzene sulfonamide]	
	C[C@@]1(O)CCC[C@H]1n1c(=O)ccc2cnc(NC3CCN(S(C)(=O)=O)CC3)nc21 [Compound A, 8-((1R,2R)-2-hydroxy-2-methylcyclopentyl)-2-((1-(methylsulfonyl)piperidin-4-yl)amino)pyrido[2,3-d]pyrimidin-7(8H)-one]	IC50 [1]: 37 nM; percentage of S phase cells ([2]; control siRNA-treated cells): significantly decreased; percentage of S phase cells ([2]; p16 knocked down cells, compared to DMSO control): not significantly decreased
≤ 50 nM	CC[C@@H](N1C(=O)C2(CC2)c2cnc(Nc3ccc(S(=O)(=O)NC)cc3)nc21)C(F)(F)F [Example 4, (R)—N-methyl-4-((6′-oxo-7′-(1,1,1-trifluorobutan-2-yl)-6′,7′-dihydrospiro[cyclopropane-1,5′-pyrrolo[2,3-d]pyrimidin]-2′-yl)amino)benzenesulfonamide]	
≤ 50 nM	CC1CCCC1N1C(=O)C2(CC2)c2cnc(Nc3ccc(S(=O)(=O)N[C@@H]4CCCN(C)C4)cc3)nc21 (stereo partly drawn) [Example 5, 4-((7′-(2-methylcyclopentyl)-6′-oxo-6′,7′-dihydrospiro[cyclopropane-1,5′-pyrrolo[2,3-d]pyrimidin]-2′-yl)amino)-N—((R)-1-methylpiperidin-3-yl) benzenesulfonamide]	
≤ 50 nM	CNS(=O)(=O)c1ccc(Nc2ncc3c(n2)N([C@@H]2CCC[C@@H](O)C2)C(=O)C32CC2)cc1 [Example 6, 4-((7′-((1R,3R)-3-hydroxycyclohexyl)-6′-oxo-6′,7′-dihydrospiro [cyclopropane-1,5′-pyrrolo[2,3-d]pyrimidin]-2′-yl)amino)-N-methylbenzene sulfonamide]	
≤ 50 nM	[2H]C([2H])([2H])NS(=O)(=O)c1ccc(Nc2ncc3c(n2)N([C@@H]2CCC[C@@H](O)C2)C(=O)C32CC2)cc1 [Example 7, 4-((7′-((1R,3R)-3-hydroxycyclohexyl)-6′-oxo-6′,7′-dihydrospiro[cyclopropane-1,5′-pyrrolo[2,3-d]pyrimidin]-2′-yl)amino)-N-(methyl-d)benzenesulfonamide]	
≤ 50 nM	[2H]C([2H])([2H])NS(=O)(=O)c1ccc(Nc2ncc3c(n2)N([C@@H](C)C2CC2)C(=O)C32CC2)cc1 [Example 8, (S)-4-((7′-(1-cyclopropylethyl)-6′-oxo-6′,7′-dihydrospiro[cyclopropane-1,5′-pyrrolo[2,3-d]pyrimidin]-2′-yl)amino)-N-(methyl-d)benzenesulfonamide]	
≤ 50 nM	CC(C)(O)CNS(=O)(=O)c1ccc(Nc2ncc3c(n2)N([C@@H]2CCC[C@@]2(C)O)C(=O)C32CC2)cc1 [Example 10, 4-((7′-(2-hydroxy-2-methylcyclopentyl)-6′-oxo-6′,7′-dihydrospiro [cyclopropane-1,5′-pyrrolo[2,3-d]pyrimidin]-2′-yl)amino)-N-(2-hydroxy-2-methylpropyl)benzenesulfonamide]	
≤ 50 nM	CN(C)CCNS(=O)(=O)c1ccc(Nc2ncc3c(n2)N(c2cc(F)ccc2Cl)C(=O)C32CC2)cc1 [Example 12, 4-((7′-(2-chloro-5-fluorophenyl)-6′-oxo-6′,7′-dihydrospiro[cyclopropane-1,5′-pyrrolo[2,3-d]pyrimidin]-2′-yl)amino)-N-(2-(dimethylamino)ethyl)benzenesulfonamide]	
≤ 50 nM	CNS(=O)(=O)c1ccc(Nc2ncc3c(n2)N(c2cc4c(cc2Cl)CNCC4)C(=O)C32CC2)cc1 [Example 13, 4-((7′-(7-chloro-1,2,3,4-tetrahydroisoquinolin-6-yl)-6′-oxo-6′,7′-dihydrospiro[cyclopropane-1,5′-pyrrolo[2,3-d]pyrimidin]-2′-yl)amino)-N-methylbenzenesulfonamide]	
≤ 50 nM	CNS(=O)(=O)c1ccc(Nc2ncc3c(n2)N(c2cc(F)ccc2C)C(=O)C32CC2)cc1 [Example 14, 4-((7′-(5-fluoro-2-methylphenyl)-6′-oxo-6′,7′-dihydrospiro[cyclopropane-1,5′-pyrrolo[2,3-d]pyrimidin]-2′-yl)amino)-N-methylbenzenesulfonamide]	
≤ 50 nM	CNS(=O)(=O)c1ccc(Nc2ncc3c(n2)N(c2cc(F)ccc2Cl)C(=O)C32CC2)cc1 [Example 15, 4-((7′-(2-chloro-5-fluorophenyl)-6′-oxo-6′,7′-dihydrospiro[cyclopropane-1,5′-pyrrolo[2,3-d]pyrimidin]-2′-yl)amino)-N-methylbenzenesulfonamide]	
